Patent US12240839B2, “Cyclobutyl dihydroquinoline sulfonamide compounds” (AMGEN INC., priority 2020, dated 2025)

Test system: CYP3A4
Test: Human CYP3A4 induction assay (mRNA, cryopreserved human hepatocytes)
Conditions: 10 uM test compound, 72 hours, percent of control (rifampin positive control)
Experimental: Human CYP3A4 Induction Assay
Cryopreserved human hepatocytes were seeded in 96-well collagen coated plates at 70,000 cells per well in hepatocyte plating media (HPM, final concentrations: 1× Dulbecco's Modified Eagle's Medium, 0.1 μM dexamethasone, 10% fetal bovine serum, 1×ITS, 1×PSG) followed by incubation at 37° C. under 5% CO2 and 90% relative humidity for 2 days to allow hepatocytes to form a confluent layer. On Day 3, hepatocytes were treated with either test compound or rifampin (20 μM, positive control for CYP3A induction) prepared in hepatocyte incubation media ((HIM, final concentrations: 1× William's Medium E, 0.1 μM dexamethasone, 1×ITS, 1×PSG). Treatment was performed for 72 hours with either 2 concentrations (2 μM or 10 μM) or a range of concentrations (0.001 μM to 100 μM) of the test compound to obtain full dose-response curve. Fresh media containing the relevant concentrations of the test compound was replaced every day until the samples were processed. After 72 hours of incubation, samples were processed for mRNA analysis using bDNA technology using manufacturer's instructions (Affymetrix, Fremont, CA). Cell viability was tested at the end of the experiment using MTT assay kit (Roche Diagnostics, Basel, Switzerland). Data was analyzed and presented as percent of control (POC) and Emax and EC50 obtained when appropriate according to guidance from Center for Drug Evaluation and Research (CDER), 2006, Guidance for Industry, Drug Interaction Studies—Study Design, Data Analysis, and Implications for Dosing and Labeling.

| SMILES | Hu CYP3A4 mRNA Induction (10 uM POC) [%] |
| --- | --- |
| COc1cc([C@H]2C[C@H](C(F)(F)F)C2)c(C)cc1-n1c(=O)ccc2cc(S(=O)(=O)Nc3ccon3)ccc21 (atropisomer, axis not shown; (P)) [Example 20, trans-(P)—N-(isoxazol-3-yl)-1-(2-methoxy-5-methyl-4-(3-(trifluoromethyl)cyclobutyl)phenyl)-2-oxo-1,2-dihydroquinoline-6-sulfonamide] | 42.22 |
| COc1cc(C2CCC2)c(Cl)cc1-n1c(=O)ccc2cc(S(=O)(=O)Nc3ccon3)ccc21 (atropisomer, axis not shown; (P)) [Example 21, (P)-1-(5-chloro-4-cyclobutyl-2-methoxyphenyl)-N-(isoxazol-3-yl)-2-oxo-1,2-dihydroquinoline-6-sulfonamide] | 17.07 |
| COc1cc(C2CCC2)c(C)cc1-n1c(=O)ccc2cc(S(=O)(=O)Nc3ccon3)ccc21 (atropisomer, axis not shown; (P)) [Example 22, (P)-1-(4-cyclobutyl-2-methoxy-5-methylphenyl)-N-(isoxazol-3-yl)-2-oxo-1,2-dihydroquinoline-6-sulfonamide] | 24.14 |
| COc1cc(C2CCC2)c(F)cc1-n1c(=O)ccc2cc(S(=O)(=O)Nc3cccnn3)ccc21 (atropisomer, axis not shown; (P)) [Example 23, (P)-1-(4-cyclobutyl-5-fluoro-2-methoxyphenyl)-2-oxo-N-(pyridazin-3-yl)-1,2-dihydroquinoline-6-sulfonamide] | 14.37 |
| COc1cc(C2CCC2)c(F)cc1-n1c(=O)ccc2cc(S(=O)(=O)Nc3ncco3)ccc21 (atropisomer, axis not shown; (P)) [Example 24, (P)-1-(4-cyclobutyl-5-fluoro-2-methoxyphenyl)-N-(oxazol-2-yl)-2-oxo-1,2-dihydroquinoline-6-sulfonamide] | 89.26 |
| COc1cc(C2CCC2)ccc1-n1c(=O)ccc2cc(S(=O)(=O)Nc3ccon3)ccc21 (atropisomer, axis not shown; (P)) [Example 25, (P)-1-(4-cyclobutyl-2-methoxyphenyl)-N-(isoxazol-3-yl)-2-oxo-1,2-dihydroquinoline-6-sulfonamide] | 18.57 |
| COc1cc(C2CCC2)ccc1-n1c(=O)ccc2cc(S(=O)(=O)Nc3ncccn3)ccc21 (atropisomer, axis not shown; (P)) [Example 26, (P)-1-(4-cyclobutyl-2-methoxyphenyl)-2-oxo-N-(pyrimidin-2-yl)-1,2-dihydroquinoline-6-sulfonamide] | 14.58 |
| COc1cc(C2CCC2)c(C)cc1-n1c(=O)ccc2cc(S(=O)(=O)Nc3ncccn3)ccc21 (atropisomer, axis not shown; (P)) [Example 27, (P)-1-(4-Cyclobutyl-2-Methoxy-5-Methylphenyl)-2-Oxo-N-(Pyrimidin-2-Yl)-1,2-Dihydroquinoline-6-Sulfonamide] | 48.14 |
| COc1cc(C2CCC2)c(F)cc1-n1c(=O)ccc2cc(S(=O)(=O)Nc3ncccn3)ccc21 (atropisomer, axis not shown; (P)) [Example 28, (P)-1-(4-cyclobutyl-5-fluoro-2-methoxyphenyl)-2-oxo-N-(pyrimidin-2-yl)-1,2-dihydroquinoline-6-sulfonamide] | 60.29 |
| COc1cc(C2CCC2)ccc1-n1c(=O)ccc2cc(S(=O)(=O)Nc3ncco3)ccc21 (atropisomer, axis not shown; (P)) [Example 29, (P)-1-(4-cyclobutyl-2-methoxyphenyl)-N-(oxazol-2-yl)-2-oxo-1,2-dihydroquinoline-6-sulfonamide] | 34.63 |
| COc1cc(C2CCC2)c(Cl)cc1-n1c(=O)ccc2cc(S(=O)(=O)Nc3ncco3)ccc21 (atropisomer, axis not shown; (P)) [Example 32, (P)-1-(5-chloro-4-cyclobutyl-2-methoxyphenyl)-N-(oxazol-2-yl)-2-oxo-1,2-dihydroquinoline-6-sulfonamide] | 88 |
| COc1cc(C2CCC2)c(C)cc1-n1c(=O)ccc2cc(S(=O)(=O)Nc3ncco3)ccc21 (atropisomer, axis not shown; (P)) [Example 34, (P)-1-(4-cyclobutyl-2-methoxy-5-methylphenyl)-N-(oxazol-2-yl)-2-oxo-1,2-dihydroquinoline-6-sulfonamide] | 69.54 |
| COc1cc([C@H]2C[C@H](C(F)(F)F)C2)ccc1-n1c(=O)ccc2cc(S(=O)(=O)Nc3ccon3)ccc21 (atropisomer, axis not shown; (P)) [Example 35, trans-(P)—N-(isoxazol-3-yl)-1-(2-methoxy-4-(3-(trifluoromethyl)cyclobutyl)phenyl)-2-oxo-1,2-dihydroquinoline-6-sulfonamide] | 13.33 |
| COc1cc([C@H]2C[C@H](C(F)(F)F)C2)ccc1-n1c(=O)ccc2cc(S(=O)(=O)Nc3ncccn3)ccc21 (atropisomer, axis not shown; (P)) [Example 36, trans-(P)-1-(2-methoxy-4-((1R,3R)-3-(trifluoromethyl)cyclobutyl)phenyl)-2-oxo-N-(pyrimidin-2-yl)-1,2-dihydroquinoline-6-sulfonamide] | 19.16 |
| COc1cc([C@H]2C[C@H](C(F)(F)F)C2)ccc1-n1c(=O)ccc2cc(S(=O)(=O)Nc3cccnn3)ccc21 (atropisomer, axis not shown; (P)) [Example 38, trans-(P)-1-(2-methoxy-4-(3-(trifluoromethyl)cyclobutyl)phenyl)-2-oxo-N-(pyridazin-3-yl)-1,2-dihydroquinoline-6-sulfonamide] | 4.43 |
| COc1cc([C@H]2C[C@H](C(F)(F)F)C2)c(F)cc1-n1c(=O)ccc2cc(S(=O)(=O)Nc3cccnn3)ccc21 (atropisomer, axis not shown; (P)) [Example 39, trans-(P)-1-(5-fluoro-2-methoxy-4-(3-(trifluoromethyl)cyclobutyl)phenyl)-2-oxo-N-(pyridazin-3-yl)-1,2-dihydroquinoline-6-sulfonamide] | 21.68 |
| COc1cc([C@H]2C[C@H](C(F)(F)F)C2)c(F)cc1-n1c(=O)ccc2cc(S(=O)(=O)Nc3ccon3)c(F)cc21 (atropisomer, axis not shown; (P)) [Example 40, (P)-7-fluoro-1-(5-fluoro-2-methoxy-4-((1R,3R)-3-(trifluoromethyl)cyclobutyl)phenyl)-N-(isoxazol-3-yl)-2-oxo-1,2-dihydroquinoline-6-sulfonamide] | 74.43 |
| COc1cc(C2CC(F)(F)C2)c(F)cc1-n1c(=O)ccc2cc(S(=O)(=O)Nc3ccon3)c(F)cc21 (atropisomer, axis not shown; (P)) [Example 41, (P)-1-(4-(3,3-difluorocyclobutyl)-5-fluoro-2-methoxyphenyl)-7-fluoro-N-(isoxazol-3-yl)-2-oxo-1,2-dihydroquinoline-6-sulfonamide] | 52.8 |
| COc1cc(C23CC(C(F)(F)F)(C2)C3)c(F)cc1-n1c(=O)ccc2cc(S(=O)(=O)Nc3ccon3)ccc21 (atropisomer, axis not shown; (P)) [Example 42, (P)-1-(5-fluoro-2-methoxy-4-(3-(trifluoromethyl)bicyclo[1.1.1]pentan-1-yl)phenyl)-N-(isoxazol-3-yl)-2-oxo-1,2-dihydroquinoline-6-sulfonamide] | 19.25 |
